Results reported in ChEMBL document CHEMBL4390652, “Design, biological evaluation and X-ray crystallography of nanomolar multifunctional ligands targeting simultaneously acetylcholinesterase and glycogen synthase kinase-3” (Eur J Med Chem, 2019).

Columns and labels:
[1] = tested on: Phosphatidylinositol 4,5-bisphosphate 3-kinase catalytic subunit alpha isoform (Homo sapiens), P42336 [I800L]; experiment: Binding affinity to human partial length PIK3CA I800L mutant (R108 to N1068 residues) expressed in mammalian expression system assessed as residual binding level at 10 uM by Kinomescan method relative to control
[2] = target: Serine/threonine-protein kinase SIK3 (Homo sapiens) (UniProt Q9Y2K2); experiment: Binding affinity to wild-type human partial length QSK (A90 to L395 residues) expressed in mammalian expression system assessed as residual binding level at 10 uM by Kinomescan method relative to control
[3] = target: Dual specificity mitogen-activated protein kinase kinase 2 (Homo sapiens) (UniProt P36507); experiment: Binding affinity to wild-type human full length MEK2 (M1 to V400 residues) expressed in mammalian expression system assessed as residual binding level at 10 uM by Kinomescan method relative to control
[4] = target: Serine/threonine-protein kinase BRSK2 (Homo sapiens) (UniProt Q8IWQ3); experiment: Binding affinity to wild-type human full length BRSK2 (M1 to L674 residues) expressed in bacterial expression system assessed as residual binding level at 10 uM by Kinomescan method relative to control
[5] = target: Serine/threonine-protein kinase Nek11 (Homo sapiens) (UniProt Q8NG66); experiment: Binding affinity to wild-type human partial length NEK11 (M1 to E313 residues) expressed in mammalian expression system assessed as residual binding level at 10 uM by Kinomescan method relative to control
[6] = tested on: Serine/threonine-protein kinase B-raf (Homo sapiens), P15056 [V600E]; experiment: Binding affinity to human partial length BRAF V600E mutant (S429 to E741 residues) expressed in mammalian expression system assessed as residual binding level at 10 uM by Kinomescan method relative to control
[7] = target: Tyrosine-protein kinase SYK (Homo sapiens) (UniProt P43405); experiment: Binding affinity to wild-type human partial length SYK (D354 to N635 residues) expressed in bacterial expression system assessed as residual binding level at 10 uM by Kinomescan method relative to control
[8] = target: Serine/threonine-protein kinase VRK2 (Homo sapiens) (UniProt Q86Y07); experiment: Binding affinity to wild-type human partial length VRK2 (M1 to T336 residues) expressed in mammalian expression system assessed as residual binding level at 10 uM by Kinomescan method relative to control
[9] = tested on: Mast/stem cell growth factor receptor Kit (Homo sapiens), P10721 [D816V]; experiment: Binding affinity to human partial length KIT D816V mutant (I571 to D952 residues) expressed in bacterial expression system assessed as residual binding level at 10 uM by Kinomescan method relative to control
[10] = target: Cyclin-dependent kinase 4 (Homo sapiens) (UniProt P11802); experiment: Binding affinity to wild-type human full length CDK4 (M1 to E303 residues) expressed in mammalian expression system assessed as residual binding level at 10 uM by Kinomescan method relative to control
[11] = target: Serine/threonine-protein kinase 24 (Homo sapiens) (UniProt Q9Y6E0); experiment: Binding affinity to wild-type human partial length MST3 (A30 to S311 residues) expressed in bacterial expression system assessed as residual binding level at 10 uM by Kinomescan method relative to control
Serine/threonine-protein kinase 24 (Homo sapiens), sequence (Q9Y6E0 whole entry, looked up, the tested form may be a part): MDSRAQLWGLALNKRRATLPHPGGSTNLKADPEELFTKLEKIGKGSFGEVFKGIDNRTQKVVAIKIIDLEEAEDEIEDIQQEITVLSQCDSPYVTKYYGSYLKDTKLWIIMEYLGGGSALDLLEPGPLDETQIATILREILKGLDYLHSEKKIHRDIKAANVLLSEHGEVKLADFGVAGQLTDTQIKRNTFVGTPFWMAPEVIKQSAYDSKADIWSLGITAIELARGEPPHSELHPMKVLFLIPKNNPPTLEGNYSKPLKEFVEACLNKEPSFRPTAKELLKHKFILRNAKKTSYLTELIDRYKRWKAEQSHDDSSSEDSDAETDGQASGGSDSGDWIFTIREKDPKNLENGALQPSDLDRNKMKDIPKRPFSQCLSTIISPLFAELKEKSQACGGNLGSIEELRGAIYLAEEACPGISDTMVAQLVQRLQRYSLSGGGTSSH

[12] = target: Ribosomal protein S6 kinase alpha-6 (Homo sapiens) (UniProt Q9UK32); experiment: Binding affinity to wild-type human partial length N-terminal RSK4 kinase domain 1 (M1 to E397 residues) expressed in mammalian expression system assessed as residual binding level at 10 uM by Kinomescan method relative to control
Ribosomal protein S6 kinase alpha-6 (Homo sapiens), sequence (Q9UK32 whole entry, the tested form may be a part): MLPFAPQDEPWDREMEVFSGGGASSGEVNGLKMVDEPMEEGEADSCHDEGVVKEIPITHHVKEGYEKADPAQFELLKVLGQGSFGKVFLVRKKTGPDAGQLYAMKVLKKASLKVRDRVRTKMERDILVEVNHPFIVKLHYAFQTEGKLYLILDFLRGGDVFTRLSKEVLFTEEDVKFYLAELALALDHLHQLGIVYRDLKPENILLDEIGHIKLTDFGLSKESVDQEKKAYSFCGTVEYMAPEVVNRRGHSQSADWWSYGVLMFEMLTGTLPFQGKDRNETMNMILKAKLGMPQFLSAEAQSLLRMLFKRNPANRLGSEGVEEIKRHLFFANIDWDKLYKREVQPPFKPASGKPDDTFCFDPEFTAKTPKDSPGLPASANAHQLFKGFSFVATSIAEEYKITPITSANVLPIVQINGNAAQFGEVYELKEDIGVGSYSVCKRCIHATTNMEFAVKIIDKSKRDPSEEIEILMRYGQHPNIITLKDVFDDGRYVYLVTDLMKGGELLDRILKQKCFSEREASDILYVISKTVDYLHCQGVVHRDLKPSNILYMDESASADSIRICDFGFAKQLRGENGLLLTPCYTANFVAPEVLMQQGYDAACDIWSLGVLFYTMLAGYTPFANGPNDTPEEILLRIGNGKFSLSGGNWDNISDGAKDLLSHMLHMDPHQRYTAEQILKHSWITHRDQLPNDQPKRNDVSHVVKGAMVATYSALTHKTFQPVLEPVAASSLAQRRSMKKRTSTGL

[13] = target: Cyclin-dependent kinase 19 (Homo sapiens) (UniProt Q9BWU1); experiment: Binding affinity to wild-type human partial length CDK11 (M1 to N360 residues) expressed in bacterial expression system assessed as residual binding level at 10 uM by Kinomescan method relative to control
Cyclin-dependent kinase 19 (Homo sapiens), sequence (Q9BWU1 whole entry, the tested form may be a part): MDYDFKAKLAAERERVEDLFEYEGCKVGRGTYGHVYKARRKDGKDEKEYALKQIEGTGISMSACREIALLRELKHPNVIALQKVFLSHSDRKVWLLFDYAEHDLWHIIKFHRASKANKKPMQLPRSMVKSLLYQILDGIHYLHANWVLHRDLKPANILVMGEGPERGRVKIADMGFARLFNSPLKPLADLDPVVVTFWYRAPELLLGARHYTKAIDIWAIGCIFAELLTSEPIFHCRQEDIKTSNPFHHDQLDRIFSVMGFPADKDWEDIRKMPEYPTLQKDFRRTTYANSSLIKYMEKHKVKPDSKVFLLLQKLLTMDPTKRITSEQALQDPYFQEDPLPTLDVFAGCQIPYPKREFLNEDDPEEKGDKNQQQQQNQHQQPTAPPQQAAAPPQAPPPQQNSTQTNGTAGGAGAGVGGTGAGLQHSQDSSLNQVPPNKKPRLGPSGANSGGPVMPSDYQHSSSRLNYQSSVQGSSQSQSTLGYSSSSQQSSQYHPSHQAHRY

[14] = target: Serine/threonine-protein kinase pim-2 (Homo sapiens) (UniProt Q9P1W9); experiment: Binding affinity to wild-type human partial length PIM2 (M1 to E291 residues) expressed in bacterial expression system assessed as residual binding level at 10 uM by Kinomescan method relative to control
Serine/threonine-protein kinase pim-2 (Homo sapiens), sequence (Q9P1W9 whole entry, looked up, the tested form may be a part): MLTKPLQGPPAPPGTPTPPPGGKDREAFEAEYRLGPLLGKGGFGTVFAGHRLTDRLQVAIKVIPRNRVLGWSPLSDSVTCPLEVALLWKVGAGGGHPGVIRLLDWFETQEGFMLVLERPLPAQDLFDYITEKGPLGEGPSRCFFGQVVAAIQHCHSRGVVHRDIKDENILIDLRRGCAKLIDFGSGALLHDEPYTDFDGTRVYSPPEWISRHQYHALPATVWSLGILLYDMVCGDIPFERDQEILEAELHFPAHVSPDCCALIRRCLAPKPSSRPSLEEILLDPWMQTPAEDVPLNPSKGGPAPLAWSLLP

[15] = target: Serine/threonine-protein kinase MARK1 (Homo sapiens) (UniProt Q9P0L2); experiment: Binding affinity to wild-type human partial length MARK1 (Q30 to T341 residues) expressed in bacterial expression system assessed as residual binding level at 10 uM by Kinomescan method relative to control
[16] = target: High affinity nerve growth factor receptor (Homo sapiens) (UniProt P04629); experiment: Binding affinity to wild-type human partial length TRKA (G475 to G790 residues) expressed in mammalian expression system assessed as residual binding level at 10 uM by Kinomescan method relative to control
High affinity nerve growth factor receptor (Homo sapiens), sequence (P04629 33-796 limits assumed): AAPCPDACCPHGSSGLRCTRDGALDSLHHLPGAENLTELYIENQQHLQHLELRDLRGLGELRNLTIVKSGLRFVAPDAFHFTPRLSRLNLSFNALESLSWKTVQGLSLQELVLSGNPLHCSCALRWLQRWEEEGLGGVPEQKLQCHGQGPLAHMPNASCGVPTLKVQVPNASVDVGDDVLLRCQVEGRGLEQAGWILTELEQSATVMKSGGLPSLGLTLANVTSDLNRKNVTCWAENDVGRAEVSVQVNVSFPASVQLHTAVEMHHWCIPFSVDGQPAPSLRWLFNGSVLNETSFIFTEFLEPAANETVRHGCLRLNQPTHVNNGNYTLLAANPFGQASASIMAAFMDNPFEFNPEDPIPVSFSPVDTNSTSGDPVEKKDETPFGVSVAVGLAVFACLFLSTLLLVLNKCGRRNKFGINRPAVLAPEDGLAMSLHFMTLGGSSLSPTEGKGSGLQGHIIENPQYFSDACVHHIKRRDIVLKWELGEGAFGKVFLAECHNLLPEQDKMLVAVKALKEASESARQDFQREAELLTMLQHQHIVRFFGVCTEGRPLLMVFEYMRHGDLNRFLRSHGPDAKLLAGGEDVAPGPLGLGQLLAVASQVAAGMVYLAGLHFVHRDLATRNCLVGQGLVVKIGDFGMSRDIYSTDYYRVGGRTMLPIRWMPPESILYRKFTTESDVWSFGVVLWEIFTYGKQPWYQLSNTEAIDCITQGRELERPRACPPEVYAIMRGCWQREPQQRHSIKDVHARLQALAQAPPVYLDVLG

[17] = target: Ribosomal protein S6 kinase alpha-1 (Homo sapiens) (UniProt Q15418); experiment: Binding affinity to wild-type human partial length N-terminal RSK1 Kinase domain 1 (M1 to E388 residues) expressed in bacterial expression system assessed as residual binding level at 10 uM by Kinomescan method relative to control
[18] = target: MAP kinase-activated protein kinase 5 (Homo sapiens) (UniProt Q8IW41); experiment: Binding affinity to wild-type human partial length MAPKAPK5 (M1 to D322 residues) expressed in mammalian expression system assessed as residual binding level at 10 uM by Kinomescan method relative to control
[19] = target: Phosphatidylinositol 4,5-bisphosphate 3-kinase catalytic subunit alpha isoform (Homo sapiens) (UniProt P42336); experiment: Binding affinity to wild-type human partial length PIK3CA (R108 to N1068 residues) expressed in mammalian expression system assessed as residual binding level at 10 uM by Kinomescan method relative to control
Phosphatidylinositol 4,5-bisphosphate 3-kinase catalytic subunit alpha isoform (Homo sapiens), sequence (P42336 whole entry, the tested form may be a part, canonical isoform): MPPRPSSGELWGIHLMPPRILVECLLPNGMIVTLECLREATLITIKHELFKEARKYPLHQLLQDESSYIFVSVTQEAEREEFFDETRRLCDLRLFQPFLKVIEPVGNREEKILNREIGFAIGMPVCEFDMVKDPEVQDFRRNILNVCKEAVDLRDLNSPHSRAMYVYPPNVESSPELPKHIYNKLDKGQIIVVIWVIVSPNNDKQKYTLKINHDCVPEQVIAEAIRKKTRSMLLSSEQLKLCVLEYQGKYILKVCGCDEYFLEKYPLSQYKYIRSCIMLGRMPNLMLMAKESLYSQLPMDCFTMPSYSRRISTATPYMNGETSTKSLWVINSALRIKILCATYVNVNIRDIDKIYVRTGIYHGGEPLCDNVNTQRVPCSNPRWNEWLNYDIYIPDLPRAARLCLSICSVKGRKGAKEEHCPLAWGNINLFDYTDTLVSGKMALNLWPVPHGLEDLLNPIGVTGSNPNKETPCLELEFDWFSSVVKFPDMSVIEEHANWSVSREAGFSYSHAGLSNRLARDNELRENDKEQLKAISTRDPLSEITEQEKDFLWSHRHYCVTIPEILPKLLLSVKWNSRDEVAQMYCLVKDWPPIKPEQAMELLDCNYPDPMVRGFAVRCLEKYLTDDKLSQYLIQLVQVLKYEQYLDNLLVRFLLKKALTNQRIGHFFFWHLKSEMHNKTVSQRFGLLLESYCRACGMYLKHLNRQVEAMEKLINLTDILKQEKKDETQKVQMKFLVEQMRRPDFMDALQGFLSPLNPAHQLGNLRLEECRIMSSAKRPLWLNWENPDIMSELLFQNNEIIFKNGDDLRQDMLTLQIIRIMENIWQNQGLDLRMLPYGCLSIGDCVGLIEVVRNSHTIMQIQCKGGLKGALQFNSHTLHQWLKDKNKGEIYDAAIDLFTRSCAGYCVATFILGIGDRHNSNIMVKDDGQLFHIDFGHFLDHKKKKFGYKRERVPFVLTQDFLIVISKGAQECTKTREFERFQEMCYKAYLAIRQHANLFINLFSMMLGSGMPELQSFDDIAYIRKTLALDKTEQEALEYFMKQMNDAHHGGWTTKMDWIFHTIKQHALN

[20] = target: Non-receptor tyrosine-protein kinase TNK1 (Homo sapiens) (UniProt Q13470); experiment: Binding affinity to wild-type human full length TNK1 (M1 to P661 residues) expressed in bacterial expression system assessed as residual binding level at 10 uM by Kinomescan method relative to control
[21] = target: Serine/threonine-protein kinase DCLK3 (Homo sapiens) (UniProt Q9C098); experiment: Binding affinity to wild-type human partial length DCAMKL3 (E140 to V628 residues) expressed in bacterial expression system assessed as residual binding level at 10 uM by Kinomescan method relative to control
[22] = target: Tyrosine-protein kinase receptor UFO (Homo sapiens) (UniProt P30530); experiment: Binding affinity to wild-type human partial length AXL (R497 to Y821 residues) expressed in bacterial expression system assessed as residual binding level at 10 uM by Kinomescan method relative to control
[23] = target: G protein-coupled receptor kinase 3 (Homo sapiens) (UniProt P35626); experiment: Binding affinity to wild-type human full length GRK3 (M1 to L688 residues) expressed in mammalian expression system assessed as residual binding level at 10 uM by Kinomescan method relative to control
G protein-coupled receptor kinase 3 (Homo sapiens), sequence (P35626 whole entry, the tested form may be a part): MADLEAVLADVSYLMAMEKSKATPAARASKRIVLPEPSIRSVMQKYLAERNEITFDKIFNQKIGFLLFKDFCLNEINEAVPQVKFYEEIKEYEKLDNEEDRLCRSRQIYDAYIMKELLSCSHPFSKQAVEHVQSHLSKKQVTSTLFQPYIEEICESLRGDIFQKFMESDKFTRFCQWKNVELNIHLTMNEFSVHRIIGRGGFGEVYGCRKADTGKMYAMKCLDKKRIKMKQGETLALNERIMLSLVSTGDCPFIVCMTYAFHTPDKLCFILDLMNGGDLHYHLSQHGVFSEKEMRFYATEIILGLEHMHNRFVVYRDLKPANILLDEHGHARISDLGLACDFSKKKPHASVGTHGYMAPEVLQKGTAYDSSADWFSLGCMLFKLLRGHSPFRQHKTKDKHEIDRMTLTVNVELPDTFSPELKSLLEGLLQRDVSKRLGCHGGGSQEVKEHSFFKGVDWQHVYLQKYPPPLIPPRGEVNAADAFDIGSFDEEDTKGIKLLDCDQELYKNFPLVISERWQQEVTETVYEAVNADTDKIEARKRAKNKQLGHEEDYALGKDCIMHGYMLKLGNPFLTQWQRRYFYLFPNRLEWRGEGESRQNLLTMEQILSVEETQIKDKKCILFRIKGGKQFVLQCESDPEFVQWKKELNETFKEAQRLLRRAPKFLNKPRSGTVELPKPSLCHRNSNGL

[24] = target: Death-associated protein kinase 2 (Homo sapiens) (UniProt Q9UIK4); experiment: Binding affinity to wild-type human full length DAPK2 (M1 to S370 residues) expressed in bacterial expression system assessed as residual binding level at 10 uM by Kinomescan method relative to control
Death-associated protein kinase 2 (Homo sapiens), sequence (Q9UIK4 whole entry, looked up, the tested form may be a part): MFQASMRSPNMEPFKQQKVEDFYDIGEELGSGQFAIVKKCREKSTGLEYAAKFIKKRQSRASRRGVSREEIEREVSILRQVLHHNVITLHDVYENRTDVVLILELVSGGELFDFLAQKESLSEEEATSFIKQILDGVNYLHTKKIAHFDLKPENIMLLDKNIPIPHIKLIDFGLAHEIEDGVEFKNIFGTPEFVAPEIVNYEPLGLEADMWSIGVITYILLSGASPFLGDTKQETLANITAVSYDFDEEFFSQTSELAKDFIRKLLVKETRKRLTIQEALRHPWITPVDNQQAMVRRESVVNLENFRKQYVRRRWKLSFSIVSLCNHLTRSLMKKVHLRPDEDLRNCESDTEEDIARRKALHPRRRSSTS

For `O=C(Nc1cc(-c2cn(CCNc3c4c(nc5ccccc35)CCCC4)nn2)ccn1)Nc1cccc2c1C1CCCCN1C2=O` (racemic), the Activity [1] was 55%, the Activity [2] was 23% and the Activity [3] was 11%. It also gave an Activity [4] of 70%, an Activity [5] of 100% and an Activity [6] of 39%. The Activity [7] was 91%, the Activity [8] was 15% and the Activity [9] was 1%. For the same molecule, the Activity [10] was 3%, the Activity [11] was 59% and the Activity [12] was 2.2%. For the same molecule, the Activity [13] was 94%, the Activity [14] was 16% and the Activity [15] was 50%. For the same molecule, the Activity [16] was 8.6%, the Activity [17] was 3.9% and the Activity [18] was 42%. It also gave an Activity [19] of 73%, an Activity [20] of 48% and an Activity [21] of 33%. It also gave an Activity [22] of 5.5%, an Activity [23] of 100% and an Activity [24] of 72%.
